Assay results reported in patent publication EP0168350B1, “Certain ring-fused pyrazolo [3,4-d]-pyridin-3-one derivatives” (CIBA-GEIGY AG, priority 1984, dated 1986).
pIC50: −log10 of the molar value. Structures can show the parent of a compound that is named as a salt.

Columns and labels:
benzodiazepine receptor = assay: in vitro benzodiazepine receptor binding assay (displacement of tritiated flunitrazepam); conditions: concentration inhibiting specific binding of 0.5 nM tritiated flunitrazepam by 50 %; synaptosomal membranes from rat fore-brain, pH 7.5
Method: The benzodiazepine receptor binding properties indicate of the nervous system regulatory activity of said new compounds are determined in the receptor binding assay in vitro, e.g. similarly to that in Nature 266, 732 ( 977) or Proc. Nat. Acad. Sci. USA 74, 3805 (1977). When tritiated flunitrazepam is used, the interaction of other drugs with said receptor can be readily assessed thus; Synaptosnal membranes from rat fore-brain are incubated at 0-5 for 30 minutes with 0.5 nM tritiated flunitrazepam and various concentrations of the test substance in a buffer medium maintained at pH 7.5. Solutions of the various concentrations of test substance are prepared by dilution of a […] stock solution in dimethylacetamide-ethanol (1:10) with 50 mM pH 7.5 Tris-HCI buffer. The membranes, containing the receptors with various amounts of tritiated flunitrazepam, are filtered onto glass fiber filters, which are then analyzed in a liquid scintillation counter. The concentration of the compounds of this invention, required to inhibit the specific binding of 0.5 nM of tritiated flunitrazepam by 50 %, the ICso, is determined graphically.

male Wistar rats = assay: Cook-Davidson conflict procedure for antianxiety effects; format: in vivo, rat; conditions: dose of about 10 mg/kg p.o.
Excerpt: Anxiolytic effects are observed, for example, according to the Cook-Davidson conflict procedure, using male Wistar rats which are maintained at 80 % of normal body weight by dietary-, but not water-restriction. They are trained to press a lever within a conditioning chamber, also containing a liquid dipper, a house light, a speaker and a grid-floor. Both lever and grid are connected to an electrical shock source and the chamber is situated in a sound-attenuated room in which a white noise-source is activated during testing, in order to mask any extraneous auditory cues. Each session of 47 minutes duration consists of two alternating schedules. The first is a Variable Interval (VI) schedule of 30 seconds, lasting for 5 minutes, during which a sweetened, condensed milk reinforcement is delivered following the first lever-press after an average of 30 seconds have elapsed, and a drug-induced decrement of this performance is taken as an indication of a neurological deficit. Immediately following the VI-schedule both a 1000 Hz tone and a light-cue are activated, indicating the commencement of the second Fixed Ration (FR) schedule, lasting for 2 minutes, wherein the milk reinforcement is delivered concomitant with an electric foot shock immediately following the tenth response, thereby establishing a conflict situation. The intensity of said shock ranges between 2.0 and 3.6 mA, varying with each animal, in order to adjust them to about 25-100 responses during this schedule over the entire session. A drug-induced enhancement of performance during the FR-schedule is taken as indication of antianxiety effects. This increased performance is measured by the increased number of electric shocks taken during six FR sessions lasting 2 minutes each.

| SMILES | pIC50 (benzodiazepine receptor) | active in the Cook-Davidson test for antianxiety effects (male Wistar rats) |
| --- | --- | --- |
| COc1ccc(-n2nc3c4c([nH]cc-3c2=O)CCCC4)cc1 [Example 12c, 2-(4-methoxyphenyl)-2,3,6,7,8,9-hexahydropyrazolo[4,3-c]quinolin-3(5H)-one] | ~9.22 |  |
| Cl.O=c1c2c[nH]c3c(c-2nn1-c1ccc(Cl)cc1)CCCC3 [Example 8a, 2-p-chlorophenyl-2,3,6,7,8,9-hexahydropyrazolo[4,3-c]quinolin-3(5H)-one hydrochloride] | ~8.46 | active |
| O=c1c2c[nH]c3c(c-2nn1-c1ccc(Cl)cc1)COCC3 [Example 4a, 2-p-chlorophenyl-2,3,5,6,7,9-hexahydropyrano[4,3-b]pyrazolo[3,4-d]pyridin-3-one] | ~9.05 | active |
| O=c1c2c[nH]c3c(c-2nn1-c1ccc(Cl)cc1)CCCCC3 [Example 9a, 2-p-chlorophenyl-2,3,5,6,7,8,9,10-ocathydrocyclohepta[b]pyrazolo[3,4-d]pyridin-3-one hydrochloride] | ~9.10 | active |
| O=C(Nc1ccccn1)c1cnc2c(c1O)CSCC2 [5H-7,8-dihydro-4-hydroxy-3-(N-2-pyridylcarbamoyl)thiopyrano[4,3-b]pyridine] | ~8.10 |  |
| O=c1c2c[nH]c3c(c-2nn1-c1ccc(Cl)cc1)CSCC3 [Example 3a, 2-p-chlorophenyl-2,3,5,6,7,9-hexahydrothiopyrano[4,3-b]pyrazolo[3,4-d]pyridine-3-one] | ~9.46 |  |
| O=c1c2c[nH]c3c(c-2nn1-c1ccc(Cl)cc1)CCC3 [Example 7a, 2-p-chlorophenyl-2,3,5,6,7,8-hexahydrocyclopenta[b]pyrazolo[3,4-d]pyridin-3-one] | ~9.30 |  |
| O=c1c2c[nH]c3c(c-2nn1-c1ccccc1)CCC3 [Example 7b, 2-phenyl-2,3,5,6,7,8-hexahydrocyclopenta[b]pyrazolo[3,4-d]pyridin-3-one] | ~8.82 |  |
| CC1CCc2[nH]cc3c(=O)n(-c4ccc(Cl)cc4)nc-3c2C1.Cl (stereo not shown) [Example 8e, 2-p-chlorophenyl-2,3,6,7,8,9-hexahydro-8-methylpyrazolo[4,3-c]-quinolin-3(5H)-one hydrochloride] | ~9.00 | active |
